Active and inactive are the calls of the source. The calls are words filed in the database; no cut-off is given here.
The compounds below were run against T1, Glutamate carboxypeptidase 2 (Homo sapiens, UniProt Q04609) (assay: Displacement of [18F]PSMA-1007 from human PSMA expressed in human LNCaP cells by competitive binding assay). Details: not given.
Assay type: cell-based
Target sequence in this assay (Q04609 whole entry): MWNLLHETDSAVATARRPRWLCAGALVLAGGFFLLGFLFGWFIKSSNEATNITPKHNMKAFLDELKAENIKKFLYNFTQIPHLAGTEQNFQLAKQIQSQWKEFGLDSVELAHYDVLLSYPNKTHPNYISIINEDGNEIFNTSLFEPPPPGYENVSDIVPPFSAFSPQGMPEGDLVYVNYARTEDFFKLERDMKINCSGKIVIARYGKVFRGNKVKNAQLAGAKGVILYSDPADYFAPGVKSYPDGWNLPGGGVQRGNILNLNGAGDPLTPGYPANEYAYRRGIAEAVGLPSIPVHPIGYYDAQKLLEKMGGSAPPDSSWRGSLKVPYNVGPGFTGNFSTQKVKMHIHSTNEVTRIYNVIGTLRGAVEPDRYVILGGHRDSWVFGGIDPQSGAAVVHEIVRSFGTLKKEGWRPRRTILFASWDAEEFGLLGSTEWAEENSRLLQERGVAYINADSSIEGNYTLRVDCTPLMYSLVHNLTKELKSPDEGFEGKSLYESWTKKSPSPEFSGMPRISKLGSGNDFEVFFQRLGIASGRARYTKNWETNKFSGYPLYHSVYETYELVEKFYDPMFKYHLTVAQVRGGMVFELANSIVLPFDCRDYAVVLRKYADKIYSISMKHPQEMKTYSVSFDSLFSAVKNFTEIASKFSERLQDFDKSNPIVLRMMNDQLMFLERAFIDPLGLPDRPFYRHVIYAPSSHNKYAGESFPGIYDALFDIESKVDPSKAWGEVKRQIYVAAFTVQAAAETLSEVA
Work on `O=C(O)CC[C@H](NC(=O)N[C@@H](CCCCNC(=O)[C@H](Cc1ccc2ccccc2c1)NC(=O)[C@H]1CC[C@H](CNC(=O)[C@H](CCC(=O)O)NC(=O)[C@H](CCC(=O)O)NC(=O)c2ccc(F)nc2)CC1)C(=O)O)C(=O)O` yielded an IC50 of 4 nM. Compound `O=C(O)CC[C@H](NC(=O)N[C@@H](CCCC(=O)Nc1ccc(F)nc1)C(=O)O)C(=O)O` has an IC50 of 90 nM. With `O=C(O)CC[C@H](NC(=O)N[C@@H](CCCC(=O)NCc1ccc(F)cc1)C(=O)O)C(=O)O` the IC50 was 1500 nM. With `O=C(O)CC[C@H](CC(=O)N[C@@H](CCCCNC(=O)[C@H](Cc1ccccc1)NC(=O)COc1ccc(C[C@H](NC(=O)CCC(=O)CO/N=C/c2ccc(F)cc2)C(=O)O)cc1)C(=O)O)C(=O)O` the IC50 was 13 nM.

These compounds were tested against T1, Glutamate carboxypeptidase 2 (assay: Displacement of [18F]PSMA-1007 from human PSMA expressed in human LNCaP cells at 0.1 to 100000 nM by competitive binding assay). Details: dose 0.1-100000 nM.
Assay type: cell-based
Target sequence in this assay (Q04609 whole entry, looked up): as the sequence (Q04609 whole entry) above
With `O=C(Nc1scc(C(=O)O)c1C(=O)O)N[C@@H](CCCCNC(=O)c1ccc(F)cc1)C(=O)O` the inhibition was “inactive”. `O=C(Nc1scc(C(=O)O)c1C(=O)O)N[C@@H](CCCCNC(=O)c1cccc(F)n1)C(=O)O` was tested, and the inhibition was “inactive”.

From ChEMBL document CHEMBL5360610, “N-Alkyl Carbamoylimidazoles as Versatile Synthons for the Synthesis of Urea-Based PSMA Inhibitors” (ACS Med Chem Lett, 2023)
